Test results taken from patent publication US12303509B2, “Compounds for the treatment of BRAF-associated diseases and disorders” (Pfizer Inc., priority 2020, dated 2025).
Counter-ions that a name gives are not always drawn.

Columns and labels:
[1] = biological target: full-length FLAG-tagged B-Raf(V600E) (Homo sapiens (Human), UniProt P15056, V600E); test: BRAF V600E enzyme assay (TR-FRET competitive displacement); assay type: binding; details: averaged IC50; TR-FRET tracer displacement, 60 min
Method in brief: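 TR-FRET tracer competition: compound (top dose 10 μM, 3-fold, 11 points) incubated 60 min at ambient temperature with FLAG-tagged full-length B-Raf(V600E) (5 nM), Eu anti-FLAG cryptate (0.5 nM) and tracer (50 nM), pH 7.4 HEPES/MgCl2 buffer. 665/615 ratio converted to percent of control; IC50 where fitted curve crosses 50 POC.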

A375 cells = test: Cellular phospho-ERK inhibition assay in A375 cells; assay type: cell-based; details: Homo sapiens, A-375, A375 cells (head prints A357), 2 hours treatment, read-out: A357 cell IC50
Method in brief: (§1)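 In Cell Western detection of phospho-ERK1/2 (Thr202/Tyr204) over GAPDH after 2 h compound exposure (66 pM to 10 μM, 9 points, 0.25% DMSO) of A375 cells in DMEM or H1755 cells in RPMI, both with 10% FBS. Percent of control set by DMSO and 10 μM binimetinib; 4-parameter IC50.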

H1755 cells = test: Cellular phospho-ERK inhibition assay in H1755 cells; assay type: cell-based; details: Homo sapiens, NCI-H1755, 2 hours treatment, read-out: H1755 Cell IC50
Method in brief: as §1

[2] = MDR1 LLC-PK1 and BCRP MDCKII permeability assay: permeability coefficient (Papp); assay type: in vitro ADME
Text: (§2) Final organic concentration in the assay was 1%.

P-gp (MDR1) = P-gp (MDR1) (Homo sapiens (Human), UniProt P08183); test: MDR1 LLC-PK1 permeability assay: efflux ratio; assay type: in vitro ADME; details: pig
Text: as §2

BCRP = BCRP (Homo sapiens (Human), UniProt Q9UNQ0); test: BCRP MDCKII permeability assay: efflux ratio; assay type: in vitro ADME; details: dog
Sequence of BCRP (Q9UNQ0 whole entry): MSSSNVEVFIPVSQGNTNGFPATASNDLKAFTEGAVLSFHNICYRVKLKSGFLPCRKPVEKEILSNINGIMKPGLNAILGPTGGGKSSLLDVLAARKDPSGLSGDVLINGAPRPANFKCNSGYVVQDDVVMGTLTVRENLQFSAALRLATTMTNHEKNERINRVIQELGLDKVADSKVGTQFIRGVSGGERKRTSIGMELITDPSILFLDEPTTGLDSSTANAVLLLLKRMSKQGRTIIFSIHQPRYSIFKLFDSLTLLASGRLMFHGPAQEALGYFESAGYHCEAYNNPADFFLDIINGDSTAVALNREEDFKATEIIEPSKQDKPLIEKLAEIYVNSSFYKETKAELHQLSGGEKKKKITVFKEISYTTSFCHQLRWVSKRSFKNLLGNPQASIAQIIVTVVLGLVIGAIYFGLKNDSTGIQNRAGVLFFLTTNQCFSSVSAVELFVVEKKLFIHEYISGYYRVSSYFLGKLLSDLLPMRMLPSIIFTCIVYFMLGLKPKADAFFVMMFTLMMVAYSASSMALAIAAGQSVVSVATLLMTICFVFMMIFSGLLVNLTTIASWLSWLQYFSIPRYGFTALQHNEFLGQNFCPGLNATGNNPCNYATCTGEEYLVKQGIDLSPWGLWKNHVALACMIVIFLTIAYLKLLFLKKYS

Sequence of P-gp (MDR1) (P08183 whole entry, species assumed): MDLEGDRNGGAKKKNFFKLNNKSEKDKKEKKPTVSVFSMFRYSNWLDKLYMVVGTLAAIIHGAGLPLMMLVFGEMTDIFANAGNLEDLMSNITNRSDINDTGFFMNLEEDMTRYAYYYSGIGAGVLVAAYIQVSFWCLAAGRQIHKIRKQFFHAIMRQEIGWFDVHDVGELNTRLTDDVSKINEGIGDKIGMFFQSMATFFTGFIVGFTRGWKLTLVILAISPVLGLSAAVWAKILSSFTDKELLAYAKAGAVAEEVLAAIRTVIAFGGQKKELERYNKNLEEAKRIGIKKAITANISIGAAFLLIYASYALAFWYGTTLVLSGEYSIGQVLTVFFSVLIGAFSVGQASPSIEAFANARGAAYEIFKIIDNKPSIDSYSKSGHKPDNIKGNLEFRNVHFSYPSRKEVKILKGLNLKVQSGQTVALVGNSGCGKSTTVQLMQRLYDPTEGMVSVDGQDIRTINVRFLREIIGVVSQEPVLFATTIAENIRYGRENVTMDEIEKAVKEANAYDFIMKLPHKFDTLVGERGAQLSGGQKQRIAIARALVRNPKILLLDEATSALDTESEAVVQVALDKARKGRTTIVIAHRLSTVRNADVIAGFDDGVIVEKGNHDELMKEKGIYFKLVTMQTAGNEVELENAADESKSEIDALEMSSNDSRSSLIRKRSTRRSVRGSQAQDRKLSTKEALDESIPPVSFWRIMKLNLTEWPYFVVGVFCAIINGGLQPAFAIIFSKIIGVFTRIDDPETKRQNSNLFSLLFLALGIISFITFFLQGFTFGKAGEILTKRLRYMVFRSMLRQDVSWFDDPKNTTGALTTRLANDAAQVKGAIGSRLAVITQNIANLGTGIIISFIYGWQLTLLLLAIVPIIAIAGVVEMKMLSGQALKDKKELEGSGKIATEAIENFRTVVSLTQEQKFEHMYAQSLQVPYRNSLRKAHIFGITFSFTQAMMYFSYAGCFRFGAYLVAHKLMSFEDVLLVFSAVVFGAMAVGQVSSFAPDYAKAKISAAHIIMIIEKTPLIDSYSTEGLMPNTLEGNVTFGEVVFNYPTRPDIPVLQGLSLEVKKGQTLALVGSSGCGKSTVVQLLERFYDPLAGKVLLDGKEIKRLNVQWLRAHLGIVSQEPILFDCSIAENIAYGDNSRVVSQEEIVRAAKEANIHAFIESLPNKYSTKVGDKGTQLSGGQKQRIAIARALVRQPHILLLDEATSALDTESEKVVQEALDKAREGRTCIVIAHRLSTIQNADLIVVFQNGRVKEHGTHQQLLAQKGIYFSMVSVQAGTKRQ
Sequence of full-length FLAG-tagged B-Raf(V600E) (P15056 whole entry V600E): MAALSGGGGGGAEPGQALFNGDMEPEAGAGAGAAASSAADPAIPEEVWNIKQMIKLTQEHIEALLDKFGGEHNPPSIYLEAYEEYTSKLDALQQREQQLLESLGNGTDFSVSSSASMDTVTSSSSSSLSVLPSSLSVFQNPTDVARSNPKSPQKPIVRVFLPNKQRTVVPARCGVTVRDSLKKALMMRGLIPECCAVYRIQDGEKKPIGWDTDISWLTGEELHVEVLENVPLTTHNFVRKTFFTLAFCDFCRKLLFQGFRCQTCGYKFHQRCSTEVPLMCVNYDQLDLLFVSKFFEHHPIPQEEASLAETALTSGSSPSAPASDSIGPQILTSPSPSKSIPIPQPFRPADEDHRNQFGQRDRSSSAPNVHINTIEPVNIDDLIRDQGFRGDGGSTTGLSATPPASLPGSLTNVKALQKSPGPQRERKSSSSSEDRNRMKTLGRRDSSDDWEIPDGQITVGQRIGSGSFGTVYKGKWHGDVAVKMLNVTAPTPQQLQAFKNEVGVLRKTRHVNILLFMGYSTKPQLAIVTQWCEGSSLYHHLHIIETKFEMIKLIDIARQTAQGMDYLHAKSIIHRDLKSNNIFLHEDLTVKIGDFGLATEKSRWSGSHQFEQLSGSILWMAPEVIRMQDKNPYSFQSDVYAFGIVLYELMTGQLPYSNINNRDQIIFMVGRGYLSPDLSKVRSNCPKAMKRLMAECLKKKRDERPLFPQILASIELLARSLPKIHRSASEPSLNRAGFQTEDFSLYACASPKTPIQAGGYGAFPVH

| SMILES | IC50 [1] [nM] | IC50 (A375 cells) [nM] | IC50 (H1755 cells) [nM] | Papp at 2 h, 1 µM [2] [×10⁻⁶ cm/s] | efflux ratio at 2 h, 1 µM (P-gp (MDR1)) | efflux ratio at 2 h, 1 µM (BCRP) |
| --- | --- | --- | --- | --- | --- | --- |
| Cc1c(Nc2c(F)ccc(NS(=O)(=O)N3CC4CC3C4)c2Cl)ccc2ncn(C)c(=O)c12 [Example 87, N-(2-chloro-3-((3,5-dimethyl-4-oxo-3,4-dihydroquinazolin-6-yl)amino)-4-fluorophenyl)-2-azabicyclo[2.1.1]hexane-2-sulfonamide trifluoroacetate] | 33 | 73 | 215 | 21 | 1 | 0.6 |
| Cc1c(Nc2c(F)ccc(NS(=O)(=O)N3CC4CC4C3)c2Cl)ccc2ncn(C)c(=O)c12 (stereo not drawn) [Example 92, N-(2-chloro-3-((3,5-dimethyl-4-oxo-3,4-dihydroquinazolin-6-yl)amino)-4-fluorophenyl)-3-azabicyclo[3.1.0]hexane-3-sulfonamide] | 8 | 36 | 35 | 22 | 1.2 | 1.9 |
| Cc1c(Nc2c(F)ccc(NS(=O)(=O)N3CCC(F)(F)C3)c2Cl)ccc2ncn(C)c(=O)c12 [Example 93, N-(2-chloro-3-((3,5-dimethyl-4-oxo-3,4-dihydroquinazolin-6-yl)amino)-4-fluorophenyl)-3,3-difluoropyrrolidine-1-sulfonamide] | 3 | 60 | 195 | 33 | 1.4 | 0.8 |
| Cc1c(Nc2c(F)c(F)cc(NS(=O)(=O)N3CCCC3)c2Cl)ccc2ncn(C)c(=O)c12 [Example 96, N-(2-chloro-3-((3,5-dimethyl-4-oxo-3,4-dihydroquinazolin-6-yl)amino)-4,5-difluorophenyl)pyrrolidine-1-sulfonamide] | 3 | 40 | 586 | 27 | 1.2 | 1.1 |
| CCN(C)S(=O)(=O)Nc1cc(F)c(F)c(Nc2ccc3ncn(C)c(=O)c3c2C)c1Cl [Example 97, N-(2-chloro-3-((3,5-dimethyl-4-oxo-3,4-dihydroquinazolin-6-yl)amino)-4,5-difluorophenyl)-(N-ethyl-N-methyl)-sulfamide] | 10 | 88 | 610 | 30 | 0.9 | 1.8 |
| Cc1c(Nc2cc(Cl)cc(NS(=O)(=O)N3CC[C@@H](F)C3)c2F)ccc2ncn(C)c(=O)c12 [Example 103, (R)-N-(5-chloro-3-((3,5-dimethyl-4-oxo-3,4-dihydroquinazolin-6-yl)amino)-2-fluorophenyl)-3-fluoropyrrolidine-1-sulfonamide] | 5 | 118 | 365 | 25 | 3.2 | 3.5 |
| CC[C@@H]1CCN(S(=O)(=O)Nc2ccc(F)c(Nc3ccc4ncn(C)c(=O)c4c3Cl)c2Cl)C1 [Example 106, (R)-N-(2-chloro-3-((5-chloro-3-methyl-4-oxo-3,4-dihydroquinazolin-6-yl)amino)-4-fluorophenyl)-3-ethylpyrrolidine-1-sulfonamide trifluoroacetate] | 12 | 131 | 430 | 22 | 1.2 | 0.8 |
| CCN(C)S(=O)(=O)Nc1ccc(F)c(Oc2ccc3ncn(C)c(=O)c3c2Cl)c1Cl [Example 109, N-(2-chloro-3-((5-chloro-3-methyl-4-oxo-3,4-dihydroquinazolin-6-yl)oxy)-4-fluorophenyl)-(N-ethyl-N-methyl)-sulfamide] | 7 | 13 | 272 | 34 | 1.1 | 0.8 |
| CN(C)S(=O)(=O)Nc1ccc(F)c(Oc2ccc3ncn(C)c(=O)c3c2Cl)c1Cl [Example 110, N-(2-chloro-3-((5-chloro-3-methyl-4-oxo-3,4-dihydroquinazolin-6-yl)oxy)-4-fluorophenyl)-(N,N-dimethyl)-sulfamide] | 8 | 6 | 48 | 34 | 1.5 | 1.4 |

The remaining compounds from weak to strong by IC50 [1], led by results:

| IC50 [1] [nM] | IC50 (A375 cells) [nM] | IC50 (H1755 cells) [nM] | Papp at 2 h, 1 µM [2] [×10⁻⁶ cm/s] | efflux ratio at 2 h, 1 µM (P-gp (MDR1)) | efflux ratio at 2 h, 1 µM (BCRP) | SMILES |
| --- | --- | --- | --- | --- | --- | --- |
| 67 | 31 | 155 | 32 | 2.2 | 1.9 | CN(C)S(=O)(=O)Nc1ccc(F)c(Nc2ccc3ncn(C)c(=O)c3c2F)c1Cl [Example 83, N-(2-chloro-4-fluoro-3-((5-fluoro-3-methyl-4-oxo-3,4-dihydroquinazolin-6-yl)amino)phenyl)-(N.N-dimethyl)-sulfamide] |
| 42 | 34 | 182 | 28 | 1.9 | 1.6 | Cc1c(Nc2c(F)ccc(NS(=O)(=O)N3CC[C@H](F)C3)c2Cl)ccc2ncn(C)c(=O)c12 [Example 86, (S)-N-(2-chloro-3-((3,5-dimethyl-4-oxo-3,4-dihydroquinazolin-6-yl)amino)-4-fluorophenyl)-3-fluoropyrrolidine-1-sulfonamide trifluoroacetate] |
| 20 | 138 | 281 | 22 | 0.9 | 1.7 | CCC1CCN(S(=O)(=O)Nc2ccc(F)c(Nc3ccc4ncn(C)c(=O)c4c3Cl)c2Cl)C1 (stereo not drawn) [Example 94, N-(2-chloro-3-((5-chloro-3-methyl-4-oxo-3,4-dihydroquinazolin-6-yl)amino)-4-fluorophenyl)-3-ethylpyrrolidine-1-sulfonamide trifluoroacetate] |
| 14 | 50 | 173 | 21 | 1.3 | 1 | Cc1c(Nc2c(F)ccc(NS(=O)(=O)N3CC[C@@H](OC(F)F)C3)c2Cl)ccc2ncn(C)c(=O)c12 [Example 89] |
| 9 | 49 | 127 | 31 | 2.3 | 3.5 | Cc1c(Nc2c(F)ccc(NS(=O)(=O)N3C[C@@H](F)[C@@H](F)C3)c2Cl)ccc2ncn(C)c(=O)c12 [Example 90, (cis)-N-(2-chloro-3-((3,5-dimethyl-4-oxo-3,4-dihydroquinazolin-6-yl)amino)-4-fluorophenyl)-3,4-difluoropyrrolidine-1-sulfonamide] |
| 5 | 33 | 100 | 34 | 1.7 | 1.4 | CO[C@@H]1CCN(S(=O)(=O)Nc2cc(F)c(F)c(Nc3ccc4ncn(C)c(=O)c4c3C)c2Cl)C1 [Example 99, (R)-N-(2-chloro-3-((3,5-dimethyl-4-oxo-3,4-dihydroquinazolin-6-yl)amino)-4,5-difluorophenyl)-3-methoxypyrrolidine-1-sulfonamide] |
| 5 | 133 | 307 | 22 | 1.2 | 1.3 | Cc1c(Nc2cc(Cl)cc(NS(=O)(=O)N3CCCC3)c2F)ccc2ncn(C)c(=O)c12 [Example 104, N-(5-chloro-3-((3,5-dimethyl-4-oxo-3,4-dihydroquinazolin-6-yl)amino)-2-fluorophenyl)pyrrolidine-1-sulfonamide] |
| 2 | 111 | 796 | 25 | 2.7 | 6.8 | Cc1c(Nc2c(F)c(F)cc(NS(=O)(=O)N3C[C@@H](F)[C@@H](F)C3)c2Cl)ccc2ncn(C)c(=O)c12 [Example 95, cis-N-(2-chloro-3-((3,5-dimethyl-4-oxo-3,4-dihydroquinazolin-6-yl)amino)-4,5-difluorophenyl)-3,4-difluoropyrrolidine-1-sulfonamide] |
| 1 | 8 | 116 | 30 | 2.7 | 1.9 | Cn1cnc2ccc(Oc3c(F)ccc(NS(=O)(=O)N4CC[C@H](F)C4)c3Cl)c(Cl)c2c1=O [Example 107, (S)-N-(2-chloro-3-((5-chloro-3-methyl-4-oxo-3,4-dihydroquinazolin-6-yl)oxy)-4-fluorophenyl)-3-fluoropyrrolidine-1-sulfonamide] |
| 1 | 14 | 1590 | 25 | 1.2 | 0.8 | Cn1cnc2ccc(Oc3c(F)ccc(NS(=O)(=O)N4CC5CC5C4)c3Cl)c(Cl)c2c1=O (stereo not drawn) [Example 108, N-(2-chloro-3-((5-chloro-3-methyl-4-oxo-3,4-dihydroquinazolin-6-yl)oxy)-4-fluorophenyl)-3-azabicyclo[3.1.0]hexane-3-sulfonamide] |
